Key:
Format in all cases: in vivo
[1] = tested on: ducksalad (Heteranthera limosa); assay: Test B flooded paddy test; conditions: Heteranthera limosa, 250 g ai/ha, Flood; 0 to 100 scale where 0 is no effect and 100 is complete control; read-out: Ducksalad plant response rating
Outline: (§1)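 Evaluation by eye, against controls, occurred 13–15 d post-treatment in a greenhouse, using a 0 (no effect) to 100 (complete control) scale. Application was into the paddy water, 3 cm deep over the soil, on 2-leaf plants.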

rice (Oryra sativa) = assay: Test B flooded paddy test; conditions: Oryza sativa, 250 g ai/ha, Flood; 0 to 100 scale where 0 is no effect and 100 is complete control; read-out: Rice plant response rating
Outline: as §1

[2] = tested on: barnyardgrass (Echinochloa crus-galli); assay: Test B flooded paddy test; conditions: Echinochloa crus-galli, 250 g ai/ha, Flood; 0 to 100 scale where 0 is no effect and 100 is complete control; read-out: Barnyardgrass plant response rating
Outline: as §1

[3] = tested on: sedge, umbrella (small-flower umbrella sedge, Cyperus difformis); assay: Test B flooded paddy test; conditions: Cyperus difformis, 250 g ai/ha, Flood; 0 to 100 scale where 0 is no effect and 100 is complete control; read-out: Sedge, Umbrella plant response rating
Outline: as §1

[4] = tested on: wheat (Triticum aestivum); assay: Test A postemergence; conditions: Triticum aestivum, post-emergence, 240 h; for plant injury at 125 g/ha: 125 g ai/ha, postemergence, visual injury on 0 to 100 scale (0 no effect, 100 complete control), approx. 10 d, read-out: Wheat plant response rating; for plant injury at 31 g/ha: Postemergence, 31 g ai/ha, visual injury after approx. 10 d, 0 to 100 scale, 0 no effect, 100 complete control, read-out: Plant response rating, Wheat
Outline: (§2)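 Preemergence directed soil spray on seeded pots, or postemergence application to plants 2–10 cm, one- to two-leaf. Solvent mixture non-phytotoxic, with surfactant. Scored ~10 d later, visually, 0–100 vs untreated.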

[5] = tested on: pigweed (Amaranthus retroflexus); assay: Test A postemergence; conditions: Amaranthus retroflexus, post-emergence, 240 h; for pest or weed control at 125 g/ha: 125 g ai/ha, postemergence, visual injury on 0 to 100 scale (0 no effect, 100 complete control), approx. 10 d, read-out: Pigweed plant response rating; for pest or weed control at 31 g/ha: Postemergence, 31 g ai/ha, visual injury after approx. 10 d, 0 to 100 scale, 0 no effect, 100 complete control, read-out: Plant response rating, Pigweed
Outline: as §2

corn (Zea mays) = assay: Test A postemergence; conditions: Zea mays, post-emergence, 240 h; for plant injury at 125 g/ha: 125 g ai/ha, postemergence, visual injury on 0 to 100 scale (0 no effect, 100 complete control), approx. 10 d, read-out: Corn plant response rating; for Corn plant response rating (crop injury, 0 = no effect, 100 = complete kill) at 31 g/ha: Postemergence, 31 g ai/ha, visual injury after approx. 10 d, 0 to 100 scale, 100 complete control
Outline: as §2

[6] = tested on: ragweed (common ragweed, Ambrosia elatior); assay: Test A postemergence; conditions: Ambrosia artemisiifolia, post-emergence, 240 h; for pest or weed control at 125 g/ha: 125 g ai/ha, postemergence, visual injury on 0 to 100 scale (0 no effect, 100 complete control), approx. 10 d, read-out: Ragweed plant response rating; for pest or weed control at 31 g/ha: Postemergence, 31 g ai/ha, visual injury after approx. 10 d, 0 to 100 scale, 0 no effect, 100 complete control, read-out: Plant response rating, Ragweed
Outline: as §2

Kochia (Kochia scoparia) [7] = assay: Test A postemergence; conditions: Bassia scoparia, post-emergence, 240 h; for pest or weed control at 125 g/ha: 125 g ai/ha, postemergence, visual injury on 0 to 100 scale (0 no effect, 100 complete control), approx. 10 d, read-out: Kochia plant response rating; for pest or weed control at 31 g/ha: Postemergence, 31 g ai/ha, visual injury after approx. 10 d, 0 to 100 scale, 0 no effect, 100 complete control, read-out: Plant response rating, Kochia
Outline: as §2

[8] = tested on: Galium (catchweed bedstraw, Galium aparine); assay: Test A postemergence; conditions: Galium, post-emergence, 240 h; for pest or weed control at 125 g/ha: 125 g ai/ha, postemergence, visual injury on 0 to 100 scale (0 no effect, 100 complete control), approx. 10 d, read-out: Galium plant response rating; for pest or weed control at 31 g/ha: Postemergence, 31 g ai/ha, visual injury after approx. 10 d, 0 to 100 scale, 0 no effect, 100 complete control, read-out: Plant response rating, Galium
Outline: as §2

[9] = tested on: blackgrass (Alopecurus myosuroides); assay: Test A postemergence; conditions: Alopecurus myosuroides, post-emergence, 240 h; for pest or weed control at 125 g/ha: 125 g ai/ha, postemergence, visual injury on 0 to 100 scale (0 no effect, 100 complete control), approx. 10 d, read-out: Blackgrass plant response rating; for pest or weed control at 31 g/ha: Postemergence, 31 g ai/ha, visual injury after approx. 10 d, 0 to 100 scale, 0 no effect, 100 complete control, read-out: Plant response rating, Blackgrass
Outline: as §2

[10] = tested on: barnyardgrass (Echinochloa crus-galli); assay: Test A postemergence; conditions: Echinochloa crus-galli, post-emergence, 240 h; for pest or weed control at 125 g/ha: 125 g ai/ha, postemergence, visual injury on 0 to 100 scale (0 no effect, 100 complete control), approx. 10 d, read-out: Barnyardgrass plant response rating; for pest or weed control at 31 g/ha: Postemergence, 31 g ai/ha, visual injury after approx. 10 d, 0 to 100 scale, 0 no effect, 100 complete control, read-out: Plant response rating, Barnyardgrass
Outline: as §2

[11] = tested on: giant foxtail (Setaria faberii); assay: Test A postemergence; conditions: Setaria faberi, post-emergence, 240 h; for pest or weed control at 125 g/ha: 125 g ai/ha, postemergence, visual injury on 0 to 100 scale (0 no effect, 100 complete control), approx. 10 d, read-out: Foxtail, Giant plant response rating; for pest or weed control at 31 g/ha: Postemergence, 31 g ai/ha, visual injury after approx. 10 d, 0 to 100 scale, 0 no effect, 100 complete control, read-out: Plant response rating, Foxtail, Giant
Outline: as §2

[12] = tested on: ryegrass, Italian (Italian ryegrass, Lolium multiflorum); assay: Test A postemergence; conditions: Lolium multiflorum, post-emergence, 240 h; for pest or weed control at 125 g/ha: 125 g ai/ha, postemergence, visual injury on 0 to 100 scale (0 no effect, 100 complete control), approx. 10 d, read-out: Ryegrass, Italian plant response rating; for pest or weed control at 31 g/ha: Postemergence, 31 g ai/ha, visual injury after approx. 10 d, 0 to 100 scale, 0 no effect, 100 complete control, read-out: Plant response rating, Ryegrass, Italian
Outline: as §2

[13] = tested on: pigweed (Amaranthus retroflexus); assay: Test A preemergence; conditions: Amaranthus retroflexus, pre-emergence, 240 h, 0 to 100 scale where 0 is no effect and 100 is complete control, read-out: Pigweed plant response rating; for pest or weed control at 31 g/ha: 31 g ai/ha, Preemergence; for pest or weed control at 125 g/ha: 125 g ai/ha, preemergence, approx. 10 d
[14] = tested on: ragweed (common ragweed, Ambrosia elatior); assay: Test A preemergence; conditions: Ambrosia artemisiifolia, pre-emergence, 240 h, 0 to 100 scale where 0 is no effect and 100 is complete control, read-out: Ragweed plant response rating; for pest or weed control at 31 g/ha: 31 g ai/ha, Preemergence; for pest or weed control at 125 g/ha: 125 g ai/ha, preemergence, approx. 10 d
Outline: as §2

Kochia (Kochia scoparia) [15] = assay: Test A preemergence; conditions: Bassia scoparia, pre-emergence, 240 h, 0 to 100 scale where 0 is no effect and 100 is complete control, read-out: Kochia plant response rating; for pest or weed control at 31 g/ha: 31 g ai/ha, Preemergence; for pest or weed control at 125 g/ha: 125 g ai/ha, preemergence, approx. 10 d
Outline: as §2

[16] = tested on: barnyardgrass (Echinochloa crus-galli); assay: Test A preemergence; conditions: Echinochloa crus-galli, pre-emergence, 240 h, 0 to 100 scale where 0 is no effect and 100 is complete control, read-out: Barnyardgrass plant response rating; for pest or weed control at 31 g/ha: 31 g ai/ha, Preemergence; for pest or weed control at 125 g/ha: 125 g ai/ha, preemergence, approx. 10 d
Outline: as §2

[17] = tested on: giant foxtail (Setaria faberii); assay: Test A preemergence; conditions: Setaria faberi, pre-emergence, 240 h, 0 to 100 scale where 0 is no effect and 100 is complete control, read-out: Foxtail, Giant plant response rating; for pest or weed control at 31 g/ha: 31 g ai/ha, Preemergence; for pest or weed control at 125 g/ha: 125 g ai/ha, preemergence, approx. 10 d
Outline: as §2

[18] = tested on: ryegrass, Italian (Italian ryegrass, Lolium multiflorum); assay: Test A preemergence; conditions: Lolium multiflorum, pre-emergence, 240 h, 0 to 100 scale where 0 is no effect and 100 is complete control, read-out: Ryegrass, Italian plant response rating; for pest or weed control at 31 g/ha: 31 g ai/ha, Preemergence; for pest or weed control at 125 g/ha: 125 g ai/ha, preemergence, approx. 10 d
Outline: as §2

Row | SMILES | pest or weed control at 250 g/ha [1] | pest or weed control at 250 g/ha (rice (Oryra sativa)) | pest or weed control at 250 g/ha [2] | pest or weed control at 250 g/ha [3] | plant injury at 125 g/ha [4] | plant injury at 31 g/ha [4] | pest or weed control at 125 g/ha [5] | pest or weed control at 31 g/ha [5] | plant injury at 125 g/ha (corn (Zea mays)) | Corn plant response rating (crop injury, 0 = no effect, 100 = complete kill) at 31 g/ha (corn (Zea mays)) | pest or weed control at 125 g/ha [6] | pest or weed control at 31 g/ha [6] | pest or weed control at 125 g/ha (Kochia (Kochia scoparia) [7]) | pest or weed control at 31 g/ha (Kochia (Kochia scoparia) [7]) | pest or weed control at 125 g/ha [8] | pest or weed control at 31 g/ha [8] | pest or weed control at 125 g/ha [9] | pest or weed control at 31 g/ha [9] | pest or weed control at 125 g/ha [10] | pest or weed control at 31 g/ha [10] | further results
1 | Cc1ccc([C@H]2CN(C)C(=O)[C@@H]2C(=O)Nc2cc(F)c(F)c(F)c2F)cc1 [Compound 1071] | 98% | 0% | 40% | 0% | 0% | 0% | 0% | 0% | 0% | 0% | 0% | 0% | 0% | 0% | 0% | 0% | 0% | 0% | 90% | 30% | pest or weed control at 125 g/ha [11]: 80%; pest or weed control at 31 g/ha [11]: 20%; pest or weed control at 125 g/ha [12]: 0%; pest or weed control at 31 g/ha [12]: 0%; pest or weed control at 31 g/ha [13]: 0%; pest or weed control at 125 g/ha [13]: 0%; pest or weed control at 31 g/ha [14]: 0%; pest or weed control at 125 g/ha [14]: 0%; pest or weed control at 31 g/ha (Kochia (Kochia scoparia) [15]): 0%; pest or weed control at 125 g/ha (Kochia (Kochia scoparia) [15]): 0%; pest or weed control at 31 g/ha [16]: 40%; pest or weed control at 125 g/ha [16]: 90%; pest or weed control at 31 g/ha [17]: 90%; pest or weed control at 125 g/ha [17]: 100%; pest or weed control at 31 g/ha [18]: 0%; pest or weed control at 125 g/ha [18]: 0%
2 | CN1C[C@H](c2csc3c2CCCC3)[C@@H](C(=O)Nc2ccccc2S(C)(=O)=O)C1=O [Compound 1080] | 40% | 15% | 50% | 0% | 0% | 0% | 0% | 0% | 0% | 0% | 0% | 0% | 0% | 0% | 0% | 0% | 0% | 0% | 50% | 0% | pest or weed control at 125 g/ha [11]: 0%; pest or weed control at 31 g/ha [11]: 0%; pest or weed control at 125 g/ha [12]: 0%; pest or weed control at 31 g/ha [12]: 0%; pest or weed control at 31 g/ha [13]: 0%; pest or weed control at 125 g/ha [13]: 0%; pest or weed control at 31 g/ha [14]: 0%; pest or weed control at 125 g/ha [14]: 0%; pest or weed control at 31 g/ha (Kochia (Kochia scoparia) [15]): 0%; pest or weed control at 125 g/ha (Kochia (Kochia scoparia) [15]): 10%; pest or weed control at 31 g/ha [16]: 0%; pest or weed control at 125 g/ha [16]: 0%; pest or weed control at 31 g/ha [17]: 0%; pest or weed control at 125 g/ha [17]: 0%; pest or weed control at 31 g/ha [18]: 0%; pest or weed control at 125 g/ha [18]: 0%

Reference: patent publication US12077503B2, “Substituted cyclic amides and their use as herbicides” (FMC CORPORATION, priority 2015, dated 2024)
